Literature values in US20240238221A1, “[…] TREATING NEUROPATHIC PAIN IN COVID-19 PATIENTS” (Grünenthal GmbH, priority 2021, published 2024).

Assays:
[1] = at analgesic doses vs. Morphine
[2] = tested on: serotonin reuptake; details: unlike tramadol
[3] = tested on: UGT1A6, UGT1A9 and UGT2B7; details: mediated via UGT mainly UGT1A6, UGT1A9 and UGT2B7 isoforms
[4] = in the investigated dose ranges; vs. morphine, oxycodone or hydromorphone
[5] = tested on: CYP450

CC[C@@H](c1cccc(O)c1)[C@@H](C)CN(C)C [Tapentadol]
immunosuppressive activity [1]: lower immunosuppressive activity | serotonin reuptake inhibition [2]: only weak serotonin reuptake inhibition | major elimination pathway [3]: conjugation with glucuronic acid | analgesic efficacy [4]: comparable to that of typical strong opioids | risk of drug-drug interactions at the CYP450 level [5]: low risk
